Measured values reported in PubChem BioAssay AID2305 (GlaxoSmithKline (GSK), 2010).

system: P. falciparum 3D7 growth, pLDH absorbance; assay: P. falciparum 3D7 growth inhibition, dose response, strain 3D7 (AID 2305)

Row | Structure (SMILES) | IC50 [nM]
1 | O=C(Nc1ccc(-c2ccccc2)cc1)Nc1cccc(Cn2ncc(N3CCCNCC3)c(Cl)c2=O)c1 | 220
2 | CN(C)CCNC(=O)c1csc(Nc2ccc(Cl)c(Cl)c2)n1 | 220
3 | CCN1CC[C@]2(c3cccc(OC)c3)Cc3nc4ccccc4c(-c4ccccc4)c3C[C@H]2C1 | 350
4 | O=C(Nc1ccc2c(c1)CCN2C1CCN(Cc2ccc(O)cc2)C1)c1ccco1 (configuration not stated) | 900
5 | O=C(Nc1cccc(-c2cccc(-c3nc4ccc(F)cc4[nH]3)c2)c1)c1cnc[nH]1 | 460
6 | COc1ccc(-c2cnc(N)c(-c3nc4ccc(Br)cc4[nH]3)c2)cc1 | 1560
7 | CCOc1ccc2nc(-c3ccccc3)cc(NN=Cc3ccncc3)c2c1 | 150
8 | Cn1c(NCc2cc(F)cc3c2OCOC3)nc2cc(Nc3ccnc(Nc4cccc(CS(C)(=O)=O)c4)n3)ccc21 | 150
9 | CCCCc1cc(NCC)nc(Nc2ccc(OC)cc2)n1 | 1180
10 | CC(=O)c1sc(Cc2nc3ccccc3s2)nc1C | 1070
11 | CCCCCOc1c(CCC)cc(Cc2cnc(N)nc2N)cc1CCC | 900
12 | O=C(/C=C/c1ccc(Cl)c(Cl)c1)NCCCCCN1CCCC(C(=O)Nc2cccc(Cl)c2)C1 (configuration not stated) | 900
13 | Cc1c(CNCCCNc2nc3ccncc3[nH]2)sc(Br)c1Br | 1040
14 | COc1ccc2nccc(NCC3(O)CCC(NCc4ccc5c(n4)NC(=O)CS5)CC3)c2n1 (configuration not stated) | 690
15 | O=C(O)c1cccnc1Sc1ccc(Cl)cc1 | 830
16 | COc1cccc(C=CC(=O)N(CCN)Cc2ccccc2)c1 | 820
17 | CC(=O)Nc1ccc(OCCN(CC(C)(C)C)c2ccc(C#N)c(C(F)(F)F)c2)c(Cl)c1 | 490
18 | CCOc1cc(-c2nnc3[nH]c(=O)n(C)c(=O)c3n2)ccc1OC(C)C | 400
19 | Cc1cc(NCCCCCCCCNc2cc(C)nc3ccccc23)c2ccccc2n1 | 990
20 | Cc1cccc2[nH]c(-c3ccc(-c4cccc(CNCCNC(=O)c5ccnn5C)c4)s3)nc12 | 220
21 | CN1CCCC(CN2CCN(Cc3cccc(-c4ccc(-c5nc6ccc(C(F)(F)F)cc6[nH]5)cc4)c3)CC2)C1 (configuration not stated) | 150
22 | CN1CCCN(Cc2ccc(-c3cccc(NC(=O)c4cccc(C#N)c4)c3)cc2)CC1 | 650
23 | O=S(=O)(c1cc(Cl)sc1Cl)N(CCC(O)(C(F)(F)F)C(F)(F)F)Cc1cccc(O)c1 | 740
24 | O=C(NCCCCN1CCC(c2ccc3ccccc3c2O)CC1)c1ccc(-c2ccc(Cl)cc2)cc1 | 180

Row | Structure (SMILES) | IC50 [nM]
25 | c1ccc2c(NCCCCCCCCCNc3c4ccccc4nc4ccccc34)c3ccccc3nc2c1 | 300
26 | c1ccc(Oc2ccc(Nc3ccnc4c(-c5ccccn5)cccc34)cc2)cc1 | 990
27 | Cc1c(C)c2c(c(C)c1O)CC[C@](C)(C(=O)N1CCC(CN3CCC(c4c[nH]c5ccccc45)CC3)CC1)O2 | 720
28 | Cc1ccc(Nc2nc(C)cc(Nc3cccc(NS(C)(=O)=O)c3)n2)cc1 | 920
29 | CCSc1ccccc1COc1c(C)nc(N)nc1N | 70
30 | CC1(C)N=C(N)N=C(N)N1c1ccc2ccccc2c1 | 50
31 | COc1cc(C(C)C)ccc1N1CCN(CCCCNC(=O)c2ccc(NC(=O)c3ccc(Cl)cc3)cc2)CC1 | 580
32 | Clc1ncnc2scc(-c3ccc(Br)cc3)c12 | 890
33 | O=C(Nc1ccc(-c2cccc(-c3nc4ccc(C(F)(F)F)cc4[nH]3)c2)cc1)Nc1ccc(F)c(F)c1F | 710
34 | COc1cc2c(cc1OC)CC(NCCCCCCNCCc1ccc(Cl)cc1)CC2 (configuration not stated) | 740
35 | CCc1ccc(NC(=O)C=NN=C(N)N)cc1 | 900
36 | COc1cc(C(=O)NCCCN2CCN(c3cccc(Cl)c3)CC2)ccc1-c1nc2cc(Cl)c(F)cc2[nH]1 | 1020
37 | Cc1noc(C)c1-c1ccc2c(Nc3nccc4ccccc34)c(C(N)=O)cnc2c1 | 890
38 | CN1CCCC(CN2CCN(Cc3cccc(-c4ccc(-c5nc6ccccc6[nH]5)s4)c3)CC2)C1 (configuration not stated) | 150
39 | CC(C)CNCc1cccc(-c2ccc(CN(C(=O)NCCc3ccccc3)C3CCN(Cc4ccccc4)CC3)cc2)c1 | 760
40 | O=C(Nc1ccc(OC2CCN(Cc3ccsc3)CC2)c(Cl)c1)c1cccs1 | 600
41 | CCCCN(CCCC)CCCCCCNc1c2ccccc2nc2ccccc12 | 780
42 | Cc1ccnc2nc(C(=O)Nc3cc(C(F)(F)F)ccc3N3CCCCC3)nn12 | 60
43 | CN(C)CCNC(=O)c1ccc(-c2cnc3ccc(NCc4ccc(Cl)c(Cl)c4)nn23)cc1 | 910
44 | CCCN(CCCCCCN(CCC)CCc1ccc(O)c(O)c1)CCc1ccc(O)cc1 | 1010
45 | CN1CCC(N(Cc2ccc(-c3cnc(NCc4ccccc4)nc3)cc2)S(=O)(=O)c2ccccc2)CC1 | 780
46 | CN(C)CCOc1cc(NC(=O)Nc2ccc3c(c2)CCCC3=O)ccc1I | 940
47 | O=C1NC(=O)C(c2cccc(NC(=O)c3ccncc3)c2)=C1c1ccccc1 | 740
48 | O=C(NCc1ccc(Cl)c(Cl)c1)c1ccc(C2CCN(Cc3ccc4nc[nH]c4c3)CC2)cc1 | 960

Row | Structure (SMILES) | IC50 [nM]
49 | N#Cc1c(F)cc(N2CCC(NCC[C@H](N)Cc3ccc(F)c(F)c3)CC2)cc1F | 860
50 | CCCNC(=O)CN1CN(c2ccccc2)C2(CCN(C(=O)c3ccc(C(C)(C)C)cc3)CC2)C1=O | 470
51 | CC(=O)Nc1cc(C(=O)Nc2ccc(C3=NCCN3)cc2)ccc1C(=O)Nc1ccc(C2=NCCN2)cc1 | 130
52 | O=C(NCC1CCN(Cc2cccc(C(F)(F)F)c2)C1)c1cc(-c2cccc(F)c2)cs1 (configuration not stated) | 1180
53 | Cc1nc(-c2cccc(Nc3ccnc4cc(-c5nccs5)ccc34)c2)no1 | 320
54 | Cc1cccc(-c2nn(-c3ccccc3)c3[nH]c(=O)c(CNC4CCCC4)cc23)c1 | 760
55 | Cc1cccc2[nH]c(-c3ccc(-c4ccc(NC(=O)NCc5cccc(F)c5)cc4)cc3)nc12 | 1300
56 | Cc1cc(NN=Cc2cccc([N+](=O)[O-])c2)c2ccccc2n1 | 730
57 | O=C(Nc1cccc(-c2nn3ccccc3c2-c2ccnc(Nc3ccc(-c4cc[nH]n4)cc3)n2)c1)c1c(F)cccc1F | 190
58 | CCC(C)c1cccc(C(C)CC)c1OCCCON1C(N)=NC(N)=NC1(C)C (configuration not stated) | 20
59 | CN1CCC(N(Cc2ccc(N3CCN(Cc4c[nH]c5ccc(Cl)cc45)CC3)nc2)C2CC2)CC1 | 1000
60 | Cc1cc(-c2cc(-c3ccc(OCCN(C)C)cc3)[nH]c2-c2ccc3c(c2)CCC3=NO)ccn1 | 870
61 | C=CCn1c(SCC(=O)Nc2cc(Cl)ccc2Cl)nc2sc(C)cc2c1=O | 70
62 | O=C(O)c1ccc(-c2cnc3ccc(NC4CCC(O)CC4)nn23)cc1 (configuration not stated) | 1000
63 | NCC1CCCN1Cc1ccc(-c2ccc(-c3nc4ccc(C(F)(F)F)cc4[nH]3)s2)cc1 (configuration not stated) | 790
64 | CCOC(=O)c1ccc(N2CCN(c3cc(Cl)ccc3C)CC2)c(NC(=O)Nc2ccc(Cl)c(Cl)c2)c1 | 580
65 | Cn1cnc2c(Nc3ccncc3)nc(-c3ccc4c(c3)OCO4)nc21 | 1110
66 | N#Cc1cccc(C(=O)Nc2ccc(-c3ccc(CN4CCCC4)cc3)cc2)c1 | 1150
67 | COc1ccccc1CN1CCC(NC(=O)c2ccc(-c3cccc(C(F)(F)F)c3)s2)CC1 | 1310
68 | CN1CCN(CCCN(Cc2csc(-c3ccc(CNCc4ccccc4)cc3)n2)C(=O)c2cc(F)cc(F)c2)CC1 | 710
69 | Cc1cc(N[C@@H](Cc2ccccc2)C(=O)NC2CCCC2)nc(NCCOc2ccccc2)n1 | 1110
70 | O=C(NCCCc1ccccc1)c1ccc(O)c(-c2cc(Cl)cc(Cl)c2)c1 | 570
71 | O=C(/C=C/c1ccccc1O)N1CCC(CCN2CCC(c3c[nH]c4ccccc34)CC2)CC1 | 1340
72 | O=C(Nc1ccc(Cl)c(Cl)c1)Nc1ccccc1N1CCNCC1 | 710
